Legend:
DU145 cells [1] = experiment: Confocal microscopy localization and co-localization; type: cell-based
Description: (§1) FIG. 3 are photographs showing that AS1411 co-localizes with the macropinocytic marker, dextran. DU145 or Hs27 cells were incubated with the reagents indicated, then washed and fixed. Nuclei were stained with DAPI (blue). The distribution of markers was visualized by confocal microscopy and fluorescent images were overlaid to determine co-localization as indicated by the yellow color. (Panel A) 10 μM AS1411 labeled with Alexa Fluor 488 (green) and 0.2 mg/ml dextran-10K, macropinocytic marker, labeled with Alexa Fluor 594 (red) for 2 h at 37° C. (Panel B) Experiments similar to those in Panel A but using FL-CRO in place of FL-AS1411. (Panel C) Cells incubated with 5 μg/ml transferrin labeled with Alexa Fluor 488 (green) and 0.2 mg/ml dextran-10K labeled with Alexa Fluor 594 (red) for 30 min at 37° C. (Panel D) DU145 cells incubated with 5 μg/ml transferrin labeled with Alexa Fluor 594 (red) and 10 μM AS1411 labeled with Alexa Fluor 488 (green) for 30 min at 37° C. Scale bars, 10 μm.
Cells (4×10^4) in fresh supplemented culture medium were plated on 18 mm diameter glass cover slips for 18 h. The media was removed and replaced with serum-free medium containing 10 μM oligodeoxynucleotide, dextran-10K, or transferrin and incubated as describe in the Description of the Drawings. After incubation, cells were washed 3 times with ice-cold PBS, fixed in 4% paraformaldehyde in PBS for 30 min at room temperature, and washed three times with PBS. After washing, the cover slips were mounted on glass slides with ProLong Antifade (Molecular Probes) according to the manufacturer's directions to inhibit photobleaching. Immunofluorescence was documented with an LSM 510 inverted confocal laser-scanning microscope (Carl Zeiss, Oberkochen, Germany) equipped with an Omnichrome argon-krypton laser. Images were obtained with a Zeiss Plan-Apo 63× oil immersion objective (1.4 NA).

DU145 cells [2] = experiment: Uptake of fluorophore-labeled oligonucleotides by flow cytometry; type: cell-based
Description: (§2) FIG. 1 are graphs showing that AS1411 cell internalization is an active process. Cells were plated 18 h before uptake analysis. After incubation as described, cells were washed with ice-cold PBS, incubated with 1 μg/ml 7-AAD, harvested and resuspended in 1% paraformaldehyde containing 2 μg/ml actinomycin D, then analyzed by flow cytometry. (Panel A) DU145 cells were incubated at 37° C. with fresh complete DMEM medium containing 10 μM FL-AS1411 (black line) or 10 μM FL-CRO (gray line) for the time indicated. (Panel B) DU145 cells were incubated for 2 h at 37° C. in complete or serum-free DMEM medium containing 10 μM FL-AS1411, or 10 μM FL-CRO, or no oligonucleotide. (Panel C) Various cell lines were incubated with 10 μM FL-AS1411 (black outline histogram), 10 μM FL-CRO (gray outline histogram) or without DNA (solid gray histogram) at 37° C. or 4° C. for 2 h. All experiments were repeated at least three times. Data are mean of three independent samples; bars, SE; *(p<0.05).
(§3) FIG. 2 are graphs showing that AS1411 is internalized by different endocytic mechanisms in DU145 cancer cells and in non-malignant Hs27 cells. DU145 or Hs27 cells were plated 18 h before uptake analysis. Cells were pre-treated as described with inhibitor (gray histogram) or the corresponding vehicle control (black histogram) before addition of 10 μM FL-AS1411 and incubation at 37° C. for 2 h. After incubation, cells were harvested and analyzed by flow cytometry. Pre-treatment conditions were at 37° C. with: (Panel A) 5 μM Cytochalasin D for 30 min; (Panel B) 80 μM Dynasore for 30 min; or (Panel C) 3 mM amiloride for 1 h. All experiments were repeated at least three times and representative data are shown. Solid gray histograms represent background autofluorescence of unstained cells.
DU145 cells were transfected for 48 h without siRNA (mock, M), or with 30 nM of one of three different nucleolin siRNAs (NCL1, NCL2, NCL3) or a control siRNA (scramble, S), or contransfected with 10 nM of each nucleolin siRNAs (mix). (Panel A) Cells were lysed and total cell lyses were analyzed by Western blotting using the antibodies shown. (Panel B) Cell-surface proteins from intact transfected DU145 cells were labeled covalently with membrane-impermeable biotinylating agent. Cells were lysed, then biotinylated plasma membrane proteins were captured with streptavidin-agarose beads and analyzed by blotting with anti-nucleolin antibody (upper panel). After stripping, the membrane was reprobed with antibodies for a plasma membrane marker (anti-pan Cadherin) and a nuclear marker (anti-histone 3) to confirm the fractionation. Total lysate (Lys) was used as control. (Panel C) The medium of transfected cells was replaced by fresh complete DMEM medium containing no oligonucleotide (gray dashed histogram) or 10 μM FL-CRO (gray solid line histogram) or 10 μM FL-AS1411 (black solid line histogram) and incubated at 37° C. for 2 h. After incubation, cells were harvested and analyzed by flow cytometry.
DU145 cells were plated 18 hr before uptake analysis. Cell medium was changed with fresh complete DMEM medium containing different concentrations of FL-AS1411 (black line) or FL-CRO (gray line), and incubated at 37° C. for 2 hrs. After incubation, cells were harvested and analyzed by flow cytometry.
FIG. 9 are graphs showing the effects of inhibitors on various endocytic pathways. DU145 or Hs27 cells were plated 18 hr before uptake analysis. (Panel A) DU145 cells were pre-treated with dynamin inhibitor, […] Dynasore (black histogram) or DMSO (gray histogram) for 30 min at 37° C. After pre-treatment, cells were treated with […] transferrin conjugated with Alexa Fluor 488 for 30 min at 37° C. (Panel B) DU145 and Hs27 cells were pre-treated with 3 mM amiloride (black histogram) or vehicle (serum-free medium, gray histogram) for 1 h at 37° C. After pre-treatment, FL-CRO was added at a concentration of 10 μM and incubated at 37° C. for 2 h. After incubation, cells were harvested and analyzed by FACS. […]

[3] = system: cancer cells (DU145, HeLa, MDA-MB-231) and non-malignant Hs27 skin fibroblasts; experiment: Temperature-dependence of oligonucleotide uptake by flow cytometry; type: cell-based; details: 10 μM, 37° C. or 4° C. for 2 h, all cell types
Description: as §2, with “*(p<0.05). […]” for “*(p<0.05).”
To determine whether AS1411 uptake occurs through an active uptake process, the temperature-dependence of AS1411 uptake in cancer cells (DU145, HeLa, MDA-MB-231) and non-malignant Hs27 skin fibroblasts was evaluated using flow cytometry. […]

Hs27 cells [4] = experiment: Confocal microscopy localization and co-localization; type: cell-based, human; details: 10 μM, 0.2 mg/ml dextran-10K, 2 h at 37° C.
Description: as §1
Cells (4×10^4) in fresh supplemented culture medium were plated on 18 mm diameter glass cover slips for 18 h. The media was removed and replaced with serum-free medium containing 10 μM oligodeoxynucleotide, dextran-10K, or transferrin and incubated as describe in the Description of the Drawings. […]

DU145 cells [5] = experiment: Transferrin uptake (clathrin-dependent endocytosis) by flow cytometry; type: cell-based; parameters: dose or concentration left out as unconfirmed; details: for 30 min, transferrin-Alexa Fluor 488 for 30 min
Description: (§4) FIG. 9 are graphs showing the effects of inhibitors on various endocytic pathways. DU145 or Hs27 cells were plated 18 hr before uptake analysis. (Panel A) DU145 cells were pre-treated with dynamin inhibitor, […] Dynasore (black histogram) or DMSO (gray histogram) for 30 min at 37° C. After pre-treatment, cells were treated with […] transferrin conjugated with Alexa Fluor 488 for 30 min at 37° C. (Panel B) DU145 and Hs27 cells were pre-treated with 3 mM amiloride (black histogram) or vehicle (serum-free medium, gray histogram) for 1 h at 37° C. After pre-treatment, FL-CRO was added at a concentration of 10 μM and incubated at 37° C. for 2 h. After incubation, cells were harvested and analyzed by FACS. Gray solid histogram represents unstained cells.
To confirm that uptake of AS1411 occurs by endocytosis, the involvement of the actin cytoskeleton, which has been implicated in regulating endocytic pathways, was evaluated. To this end, DU145 and Hs27 cells were pre-treated with an actin polymerization inhibitor. 5 μM cytochalasin D, and assessed for FL-AS1411 uptake by flow cytometry. […]

Hs27 cells [6] = experiment: Uptake of fluorophore-labeled oligonucleotides by flow cytometry; type: cell-based, human; details: 80 μM dynasore, then 10 μM FL-AS1411 2 h
Description: as §2, §3, §4
To analyze uptake of the oligodeoxynucleotides or dextran-10K (macropinocytic marker) by flow cytometry, 2×10^5 cells in fresh supplemented culture medium (2.5 ml) were plated into 6-well plates for 18 h. […]

[7] = 10 μM, 37° C., complete DMEM medium

5′-Fluor-d(TTTGGTGGTGGTGGTTGTGGTGGTGGTGG) [FL-AS1411]
co-localization with the macropinocytic marker, dextran (DU145 cells [1]; 10 μM, 0.2 mg/ml dextran-10K, 2 h at 37° C.): strongly co-localized
subcellular localization (DU145 cells [1]; confocal microscopy, cancer and non-malignant cells): localized in confined structures in the cytoplasm
earliest time at which uptake was detected (DU145 cells [2]; [7]): 5 min
time after which uptake is decreasing (DU145 cells [2]; [7]): > 8 h
serum dependence of uptake (DU145 cells [2]; 10 μM, 2 h at 37° C., complete or serum-free DMEM medium): independent of the presence of serum
temperature dependence of uptake [3]: strong temperature dependence
co-localization with the macropinocytic marker, dextran (Hs27 cells [4]): not in Hs27 cells

O=C(N/N=C/c1ccc(O)c(O)c1)c1cc2ccccc2cc1O [dynasore]
effect of pre-treatment on uptake of transferrin (DU145 cells [5]): inhibited
effect of pre-treatment on FL-AS1411 uptake (DU145 cells [2]; 80 μM dynasore, then 10 μM FL-AS1411 2 h): slightly increased the uptake of FL-AS1411
effect of pre-treatment on FL-AS1411 uptake (Hs27 cells [6]): decreased the uptake of AS1411

From patent US20130065227A1, “METHODS OF INCREASING MACROPINOCYTOSIS IN CANCER CELLS” (priority 2010, published 2013)
